# Target: GABA-A receptor; anion channel
# Assay: Inhibition of [3H]EBOB binding at GABA-gated chloride channel NCB site in bovine brain membranes
# Type: cell membranes, Bos taurus
row,IC50,SMILES
1,76 nM,CC(C)(C)C1CSC(c2ccc(C#CCO)cc2)SC1 (centres undefined)
2,830 nM,CC(C)(C)C1CSC(c2ccc(C#CCCC(=O)C=[N+]=[N-])cc2)SC1 (centres undefined)
3,410 nM,CC(C)(C)C1CSC(c2ccc(C#CCCCO)cc2)SC1 (centres undefined)
4,690 nM,CCC#Cc1ccc(C2SCC(C(C)(C)C)CS2)cc1 (centres undefined)
5,690 nM,CC(C)(C)C1CSC(c2ccc(C#CC(=O)C=[N+]=[N-])cc2)SC1 (centres undefined)
6,6700 nM,CCCC#Cc1ccc(C2SCC(C(C)(C)C)CS2)cc1 (centres undefined)
7,35 nM,CC#Cc1ccc(C2SCC(C(C)(C)C)CS2)cc1 (centres undefined)
8,10 nM,CC(C)(C)C1CSC(c2ccc(C#CCCP(=O)(O)O)cc2)SC1 (centres undefined)
9,23 nM,CC(C)(C)C1CSC(c2ccc(C#CCC(=O)O)cc2)SC1 (centres undefined)
10,460 nM,CCOC(=O)CC#Cc1ccc(C2SCC(C(C)(C)C)CS2)cc1 (centres undefined)
11,3100 nM,CC(O)C#Cc1ccc(C2SCC(C(C)(C)C)CS2)cc1 (centres undefined)
12,9 nM,COC(=O)C#Cc1ccc(C2SCC(C(C)(C)C)CS2)cc1 (centres undefined)
13,21 nM,C#Cc1ccc(C2SCC(C(C)(C)C)CS2)cc1 (centres undefined)
14,3000 nM,CCOP(=O)(CCC#Cc1ccc(C2SCC(C(C)(C)C)CS2)cc1)OCC (centres undefined)
15,17 nM,COC(=O)CCC#Cc1ccc(C2SCC(C(C)(C)C)CS2)cc1 (centres undefined)
16,5 nM,CC(C)(C)C1CSC(c2ccc(C#CCCC(=O)O)cc2)SC1 (centres undefined)
17,> 10000 nM,CC(C)(O)C#Cc1ccc(C2SCC(C(C)(C)C)CS2)cc1 (centres undefined)
18,400 nM,CC(C)(C)C1CSC(c2ccc(C#CCCO)cc2)SC1 (centres undefined)
19,7 nM,CC(C)(C)C1CSC(c2ccc(C#CC(=O)O)cc2)SC1 (centres undefined)

# Reference: ChEMBL document CHEMBL1127158, “1,3-dithianes with acid functionalities: potent inhibitors and candidate affinity probes for the gaba-gated chloride channel” (Bioorg Med Chem Lett, 1993)
